Results from patent publication US10501479B2, “Benzenesulfonyl-asymmetric ureas and medical uses thereof” (HELSINN HEALTHCARE SA, priority 2016, dated 2019).
Where “and” joins values, the source holds several entries; their conditions need not be identical. Equal entries are not always repeated. Where two headings read alike, the source gives them in different places.

Assays:
[1] = target: T1, recombinant human ghrelin receptor (HEK293/GRLN) (Homo sapiens, UniProt Q92847); assay: Ghrelin inverse agonist potency (EC50) with IP-1 (IP-One HTRF) assay; type: cell-based; details: IP-1 assay
T1 construct: expressed in transfected cells
T1 sequence (Q92847 whole entry): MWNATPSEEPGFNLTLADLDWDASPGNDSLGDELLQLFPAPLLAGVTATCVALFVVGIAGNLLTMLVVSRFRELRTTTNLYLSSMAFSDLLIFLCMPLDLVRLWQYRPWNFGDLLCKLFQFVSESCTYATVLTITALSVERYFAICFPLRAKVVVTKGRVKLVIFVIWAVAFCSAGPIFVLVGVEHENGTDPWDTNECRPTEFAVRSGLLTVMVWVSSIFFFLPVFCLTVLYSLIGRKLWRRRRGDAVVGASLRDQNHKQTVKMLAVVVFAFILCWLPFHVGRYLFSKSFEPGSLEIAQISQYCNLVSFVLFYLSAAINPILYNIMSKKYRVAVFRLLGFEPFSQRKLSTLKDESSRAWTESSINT
How it was run: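 HEK293/GRLN cells were seeded 18-22 hours before the test, then exposed to compound in stimulation buffer for 1 hour at 37° C, 5% CO2. IP-1 was detected by IP-One HTRF (IP1-d2 plus Tb-cryptate, 1 hour RT), reading 620 and 665 nm; the inverse agonist EC50 was derived from this.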

[2] = target: T2, GHSR-1a (HEK293/GHSR1a cell line) (Homo sapiens, UniProt Q92847); assay: Ghrelin agonist potency (EC50) with calcium FLIPR assay; type: cell-based
T2 construct: expressed in transfected cells; host or cells: HEK293/GHSR1a cell line
T2 sequence (Q92847 whole entry): as above
How it was run: (§1)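 HEK293/GHSR1a cells, seeded 24 hr ahead and loaded with calcium dye 30-60 min, were read by FLIPR fluorescence for 2 min after addition at t=20 sec. Agonism: compound alone, EC50 from dose-response. Antagonism: compound plus 10 nM ghrelin, IC50 from reduction of ghrelin response.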

[3] = target: T2, GHSR-1a (HEK293/GHSR1a cell line); assay: Ghrelin antagonist potency (IC50) with calcium FLIPR assay, ghrelin 10 nM; type: cell-based
How it was run: as §1

[4] = Metabolic stability in human liver microsomes; type: in vitro ADME
How it was run: (§2)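 Compound incubated with human, dog, rat or mouse liver microsomes in 100 mM potassium phosphate, pH 7.4, at 37 °C. Reaction started with an NADPH regenerating system. Samples quenched at 0, 10, 30 and 90 min, and remaining compound measured by LC-MS/MS.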

[5] = Metabolic stability in mouse liver microsomes; type: in vitro ADME
How it was run: as §2

[6] = Animal PK study in mouse via i.v., p.o. and s.c. administration; type: in vivo; details: for Vd / clearance / half-life: plasma; for clearance: read-out: PK CL i.v.
How it was run: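 Single i.v. (tail vein), s.c. (neck scruff) or p.o. (gavage) dose to mice or rats; oral vehicle 1–5% DMSO/0.5% methylcellulose, i.v./s.c. vehicle 1–5% DMSO in 20% HP-β-cyclodextrin. Plasma sampled 0.083 (i.v./s.c.) or 0.25 to 24 h, analyzed by LC-MS/MS.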

[7] = Plasma protein binding (PPB), human; type: in vitro ADME; details: read-out: PPB (H) (converted)
[8] = Plasma protein binding (PPB), mouse; type: in vitro ADME
[9] = Plasma protein binding (PPB), rat; type: in vitro ADME; details: read-out: PPB (R)
[10] = Plasma protein binding (PPB), dog; type: in vitro ADME; details: read-out: PPB (D) (converted)
[11] = Metabolic stability in dog liver microsomes; type: in vitro ADME
How it was run: as §2

[12] = Metabolic stability in rat liver microsomes; type: in vitro ADME
How it was run: as §2

[13] = Animal PK study in rat via i.v., p.o. and s.c. administration; type: in vivo; details: rat
[14] = Plasma protein binding (PPB), human (H); type: in vitro ADME
[15] = Plasma protein binding (PPB), rat (R); type: in vitro ADME
[16] = HEK293/GRLN, read-out: Activity EC50 (ghrelin inverse agonist potency)
[17] = HEK293/GHSR1a, read-out: Activity EC50/EMax: EC50 (ghrelin agonist potency)
[18] = iv, 5 mg/kg, i.v., read-out: PK t1/2 i.v.
[19] = po, 10 mg/kg, p.o., read-out: PK t1/2 p.o.
[20] = ghrelin inverse agonist potency, read-out: Activity EC50
[21] = ghrelin agonist potency, read-out: Activity EC50/EMax
[22] = ghrelin antagonist potency, read-out: Activity IC50

| SMILES | EC50 [1, 16] | EC50 [2, 17] [nM] | Metabolic Stability Study H = human [4] | Metabolic Stability Study M = mouse [5] | PK F [6] [%] | PK CL p.o. ([6]; p.o.) [mL/min/kg] | PK Vd p.o. ([6]; p.o.) [L/kg] | Vd ([6]; iv, 5 mg/kg) [L/kg] | clearance ([6]; iv, 5 mg/kg, i.v.) [mL/min/kg] | half-life [6, 18] [h] | half-life [6, 19] [h] | fraction unbound [7] | fraction unbound [8] | fraction unbound [9] | EC50 [1, 20] [nM] | EC50 [2, 21] [nM] | IC50 [3, 22] [nM] | fraction unbound [14] | fraction unbound [15] | further results |
| --- | --- | --- | --- | --- | --- | --- | --- | --- | --- | --- | --- | --- | --- | --- | --- | --- | --- | --- | --- | --- |
| CC(NC(=O)Nc1ccc(S(=O)(=O)Nc2ccc3c(c2)CCN(C)C3)cc1)c1cccc(Cl)c1Cl (stereo not shown) [H1333, 4-(3-(1-(2,3-dichlorophenyl)ethyl)ureido)-N-(2-methyl-1,2,3,4-tetrahydroisoquinolin-6-yl)benzenesulfonamide] | 1.3 nM | > 30000 | 47.2 µL/min/mg | 54 µL/min/mg | 2.08 | 1400 | 170 | 3.26 | 29.7 | 1.27 | 1.4 | 0.0011 | 0.0006 | 0.001 | – | – | – | – | – | IC50 ([3]; HEK293/GHSR1a, ghrelin 10 nM, read-out: Activity IC50 (ghrelin antagonist potency)): 2.24 nM; fraction unbound [10]: 0.0015 |
| COc1cc(S(=O)(=O)Cc2ccc3c(c2)CCNC3)ccc1NC(=O)NC(C)c1cccc(Cl)c1Cl.Cl (stereo not shown) [H1415, 1-(1-(2,3-dichlorophenyl)ethyl)-3-(2-methoxy-4-(((1,2,3,4-tetrahydroisoquinolin-6-yl)methyl)sulfonyl)phenyl)urea] | 0.573 nM and 0.4 nM | > 30000 | < 10 µL/min/mg | 12.8 µL/min/mg | 1.12 | 1240 | 326.9 | 1.72 | 17.2 | 1.16 | 3.04 | 0.0015 | 0.0007 | 0.0023 | – | – | – | – | – | Metabolic Stability Study D = dog [11]: 10.5 µL/min/mg; Metabolic Stability Study R = rat [12]: 28.3 µL/min/mg; clearance ([13]; plasma, iv, 5 mg/kg, i.v., read-out: PK CL i.v. (R)): 35.3 mL/min/kg; Vd ([13]; plasma, iv, 5 mg/kg, i.v., read-out: PK Vd i.v. (R)): 39.7 L/kg; half-life ([13]; plasma, iv, 5 mg/kg, i.v., read-out: PK t1/2 i.v. (R)): 13 h; PK F (R) [13]: 8.9%; PK CL i.p. (R) ([13]; i.p.): 46 mL/min/kg; PK Vd i.p. (R) ([13]; i.p.): 61.91 L/kg; PK t1/2 i.p. (R) ([13]; i.p.): 17/23 |
| CC(NC(=O)Nc1ccc(S(=O)(=O)Cc2ccc3c(c2)CNC3)cc1C(=O)O)c1ccccc1.Cl (stereo not shown) [H1486, 5-((isoindolin-5-ylmethyl)sulfonyl)-2-(3-(1-phenylethyl)ureido)benzoic acid] | – | – | H = <10 M = <10 μL/min/mg | H = <10 M = <10 μL/min/mg | – | – | – | – | – | – | – | – | – | – | 4.9 | > 30000 | 9.21 | 0.0519 | 0.0265 | – |
| COc1cc(S(=O)(=O)Cc2ccc3c(c2)CCNC3)ccc1NC(=O)N(O)C(C)c1cccc(Cl)c1Cl (stereo not shown) [H1497, 1-(1-(2,3-dichlorophenyl)ethyl)-1-hydroxy-3-(2-methoxy-4-(((1,2,3,4-tetrahydroisoquinolin-6-yl)methyl)sulfonyl)phenyl)urea] | – | – | H = <10 μL/min/mg | – | – | – | – | – | – | – | – | – | – | – | 3.3 | > 30000 | 2.81 | 0.0016 | 0.002 | – |
| COc1cc(S(=O)(=O)Cc2ccc3c(c2)CCNC3)ccc1NC(=O)N(O)C(C)c1ccccc1 (stereo not shown) [H1498, 1-hydroxy-3-(2-methoxy-4-(((1,2,3,4-tetrahydroisoquinolin-6-yl)methyl)sulfonyl)phenyl)-1-(1-phenylethyl)urea] | – | – | H = 9.9 μL/min/mg | – | – | – | – | – | – | – | – | – | – | – | 7.2 | > 30000 | 24.8 | 0.0123 | 0.0294 | – |
